The record followed here is ChEMBL document CHEMBL1136164, “Carbonic anhydrase inhibitors: X-ray crystallographic structure of the adduct of human isozyme II with a bis-sulfonamide-two heads are better than one?” (Bioorg Med Chem Lett, 2003).

The species entered for assay [1] is Oryctolagus cuniculus. Kind of assay: Prolonged IOP lowering by the compound in glaucomatous rabbit for 5 to 6 hours. In kind it is functional.
Assay [2] is filed under the species Oryctolagus cuniculus. Kind of assay: Prolonged IOP lowering by the compound in glaucomatous rabbit for 3 hours. In kind it is functional.

Compound `NS(=O)(=O)c1ccc(CCNC(=O)c2ccc(S(N)(=O)=O)cc2)cc1` displayed an IOP lowering in assay [1] of 9.5 mmHg.
`CCN[C@H]1C[C@H](C)S(=O)(=O)c2sc(S(N)(=O)=O)cc21` [DORZOLAMIDE]: in assay [2], the IOP lowering came out at 3.6 mmHg.
